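Following 48 hours of exposure in 96-well plates, responses at five concentrations were used to interpolate endpoints linearly. TGI: concentration producing complete growth inhibition.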
Assays:
Assay in all cases: NCI tumour cell line growth inhibition, 48 h
HCT-116 colon = system: HCT-116 colon
RPMI-8226 leukemia = system: RPMI-8226 leukemia
HOP-62 NSCLC = system: HOP-62 NSCLC
SF-539 CNS = system: SF-539 CNS
UACC-257 melanoma = system: UACC-257 melanoma
EKVX NSCLC = system: EKVX NSCLC
MALME-3M melanoma = system: MALME-3M melanoma
M14 melanoma = system: M14 melanoma
SW-620 colon = system: SW-620 colon
SK-MEL-28 melanoma = system: SK-MEL-28 melanoma
HT29 colon = system: HT29 colon
CAKI-1 renal = system: CAKI-1 renal
OVCAR-5 ovarian = system: OVCAR-5 ovarian
SNB-78 CNS = system: SNB-78 CNS
SF-268 CNS = system: SF-268 CNS
SN12C renal = system: SN12C renal
SNB-19 CNS = system: SNB-19 CNS
UACC-62 melanoma = system: UACC-62 melanoma
U251 CNS = system: U251 CNS
HOP-92 NSCLC = system: HOP-92 NSCLC
DMS 114 small cell lung = system: DMS 114 small cell lung
M19-MEL melanoma = system: M19-MEL melanoma
TK-10 renal = system: TK-10 renal
SK-OV-3 ovarian = system: SK-OV-3 ovarian
LXFL 529 NSCLC = system: LXFL 529 NSCLC
786-0 renal = system: 786-0 renal
NCI-H23 lung = system: NCI-H23 lung
XF 498 CNS = system: XF 498 CNS
IGROV1 ovarian = system: IGROV1 ovarian
CCRF-CEM leukemia = system: CCRF-CEM leukemia
NCI-H460 lung = system: NCI-H460 lung
A498 renal = system: A498 renal
RXF 393 renal = system: RXF 393 renal
HCC-2998 colon = system: HCC-2998 colon
HL-60(TB) leukemia = system: HL-60(TB) leukemia
OVCAR-8 ovarian = system: OVCAR-8 ovarian
SF-295 CNS = system: SF-295 CNS
A549 NSCLC = system: A549 NSCLC
UO-31 renal = system: UO-31 renal
KM20L2 colon = system: KM20L2 colon
HOP-18 NSCLC = system: HOP-18 NSCLC
SNB-75 CNS = system: SNB-75 CNS
COLO 205 colon = system: COLO 205 colon
DLD-1 colon = system: DLD-1 colon
ACHN renal = system: ACHN renal
OVCAR-4 ovarian = system: OVCAR-4 ovarian
NCI-H522 lung = system: NCI-H522 lung
OVCAR-3 ovarian = system: OVCAR-3 ovarian
K-562 leukemia = system: K-562 leukemia
NCI-H226 lung = system: NCI-H226 lung
SK-MEL-5 melanoma = system: SK-MEL-5 melanoma
LOX IMVI melanoma = system: LOX IMVI melanoma
DMS 273 small cell lung = system: DMS 273 small cell lung
KM12 colon = system: KM12 colon
SR leukemia = system: SR leukemia
SK-MEL-2 melanoma = system: SK-MEL-2 melanoma
MOLT-4 leukemia = system: MOLT-4 leukemia
HCT-15 colon = system: HCT-15 colon

Measured: TGI

O=C(Cc1c(C(=O)Nc2ccccc2)sc(C(=O)Nc2ccccc2)c1CC(=O)Nc1ccccc1)Nc1ccccc1
13.7 µM: SF-268 CNS
> 100 µM: HCT-116 colon | RPMI-8226 leukemia | HOP-62 NSCLC | SF-539 CNS | UACC-257 melanoma | EKVX NSCLC | MALME-3M melanoma | M14 melanoma | SW-620 colon | HT29 colon | CAKI-1 renal | OVCAR-5 ovarian | SNB-78 CNS | SN12C renal | SNB-19 CNS | UACC-62 melanoma | U251 CNS | HOP-92 NSCLC | DMS 114 small cell lung | M19-MEL melanoma | TK-10 renal | SK-OV-3 ovarian | LXFL 529 NSCLC | 786-0 renal | NCI-H23 lung | XF 498 CNS | IGROV1 ovarian | CCRF-CEM leukemia | NCI-H460 lung | A498 renal | RXF 393 renal | HCC-2998 colon | HL-60(TB) leukemia | OVCAR-8 ovarian | SF-295 CNS | A549 NSCLC | UO-31 renal | KM20L2 colon | HOP-18 NSCLC | SNB-75 CNS | COLO 205 colon | DLD-1 colon | ACHN renal | OVCAR-4 ovarian | NCI-H522 lung | OVCAR-3 ovarian | K-562 leukemia | NCI-H226 lung | SK-MEL-5 melanoma | LOX IMVI melanoma | DMS 273 small cell lung | KM12 colon
19.8 µM: SK-MEL-28 melanoma

Nc1c2ccccc2nc2nccnc12
> 100 µM: HCT-116 colon | SR leukemia | RPMI-8226 leukemia | HOP-62 NSCLC | SF-539 CNS | UACC-257 melanoma | SK-MEL-2 melanoma | EKVX NSCLC | MALME-3M melanoma | M14 melanoma | SW-620 colon | SK-MEL-28 melanoma | HT29 colon | CAKI-1 renal | OVCAR-5 ovarian | SNB-78 CNS | SF-268 CNS | SN12C renal | SNB-19 CNS | UACC-62 melanoma | U251 CNS | HOP-92 NSCLC | DMS 114 small cell lung | M19-MEL melanoma | TK-10 renal | SK-OV-3 ovarian | 786-0 renal | NCI-H23 lung | XF 498 CNS | IGROV1 ovarian | CCRF-CEM leukemia | NCI-H460 lung | A498 renal | RXF 393 renal | HCC-2998 colon | HL-60(TB) leukemia | OVCAR-8 ovarian | SF-295 CNS | A549 NSCLC | UO-31 renal | KM20L2 colon | HOP-18 NSCLC | SNB-75 CNS | COLO 205 colon | DLD-1 colon | ACHN renal | OVCAR-4 ovarian | NCI-H522 lung | MOLT-4 leukemia | OVCAR-3 ovarian | HCT-15 colon | K-562 leukemia | NCI-H226 lung | SK-MEL-5 melanoma | LOX IMVI melanoma | DMS 273 small cell lung | KM12 colon

— PubChem BioAssay (NCI)
